Data as given in PubChem BioAssay AID256 (DTP/NCI, 2004).
Where “and” joins values, the source holds several entries; their conditions need not be identical. Equal values may be shown once. Toxic doses and inconclusive results are not listed.

Tested on: CD2F1 mice, L1210 leukemia ip, survival T/C
Assay: NCI In Vivo Anticancer Drug Screen. Data for tumor model L1210 Leukemia (intraperitoneal) in CD2F1 (CDF1) mice
Conditions: higher = longer survival
Procedure, shortened: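 Read-out first: treated-group measurement over vehicle-control measurement, expressed as a ratio. Animals bore a transplanted tumor line and were dosed with compound or vehicle.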

[1] = endpoint: mean survival time, dose: 100.0 mg/kg/injection, schedule: Q01DX009 (ip), vehicle: saline with Tween-80
[2] = endpoint: mean survival time, dose: 100.0 mg/kg/injection, schedule: Q04DX003 (ip), vehicle: saline
[3] = endpoint: mean survival time, dose: 200.0 mg/kg/injection, schedule: Q01DX009 (ip), vehicle: saline with Tween-80
[4] = endpoint: mean survival time, dose: 200.0 mg/kg/injection, schedule: Q04DX003 (ip), vehicle: saline
[5] = endpoint: mean survival time, dose: 100.0 mg/kg/injection, schedule: Q04DX003 (ip), vehicle: saline with Tween-80
[6] = endpoint: mean survival time, dose: 200.0 mg/kg/injection, schedule: Q04DX003 (ip), vehicle: saline with Tween-80
[7] = endpoint: mean survival time, dose: 400.0 mg/kg/injection, schedule: Q04DX003 (ip), vehicle: saline with Tween-80

C1OC1CN1CCN(CC2CO2)CC1 (configuration not stated)
T/C (endpoint: mean survival time, dose: 2.0 mg/kg/injection, schedule: Q03HX008 (ip), vehicle: saline): 105 % of control | T/C (endpoint: mean survival time, dose: 2.0 mg/kg/injection, schedule: Q03HX016 (ip), vehicle: saline): 98 % of control | T/C (endpoint: mean survival time, dose: 2.0 mg/kg/injection, schedule: Q03HX024 (ip), vehicle: saline): 108 % of control | T/C (endpoint: mean survival time, dose: 4.0 mg/kg/injection, schedule: Q03HX008 (ip), vehicle: saline): 108 % of control | T/C (endpoint: mean survival time, dose: 4.0 mg/kg/injection, schedule: Q03HX016 (ip), vehicle: saline): 100 % of control | T/C (endpoint: mean survival time, dose: 4.0 mg/kg/injection, schedule: Q03HX024 (ip), vehicle: saline): 121 % of control | T/C (endpoint: mean survival time, dose: 8.0 mg/kg/injection, schedule: Q01DX009 (ip), vehicle: saline): 121 % of control | T/C (endpoint: mean survival time, dose: 8.0 mg/kg/injection, schedule: Q01DX009 (sc), vehicle: saline): 108 % of control | T/C (endpoint: mean survival time, dose: 16.0 mg/kg/injection, schedule: Q01DX001 (ip), vehicle: saline): 113 % of control | T/C (endpoint: mean survival time, dose: 16.0 mg/kg/injection, schedule: Q01DX001 (sc), vehicle: saline): 105 % of control | T/C (endpoint: mean survival time, dose: 16.0 mg/kg/injection, schedule: Q04DX003 (ip), vehicle: saline): 120 % of control | T/C (endpoint: mean survival time, dose: 16.0 mg/kg/injection, schedule: Q08DX002 (ip), vehicle: saline): 103 % of control | T/C (endpoint: mean survival time, dose: 32.0 mg/kg/injection, schedule: Q01DX001 (sc), vehicle: saline): 108 % of control | T/C (endpoint: mean survival time, dose: 32.0 mg/kg/injection, schedule: Q01DX009 (ip), vehicle: saline): 194 % of control | T/C (endpoint: mean survival time, dose: 32.0 mg/kg/injection, schedule: Q08DX002 (ip), vehicle: saline): 120 % of control | T/C (endpoint: mean survival time, dose: 64.0 mg/kg/injection, schedule: Q01DX001 (ip), vehicle: saline): 152 % of control | T/C (endpoint: mean survival time, dose: 64.0 mg/kg/injection, schedule: Q01DX001 (sc), vehicle: saline): 122 % of control | T/C (endpoint: mean survival time, dose: 64.0 mg/kg/injection, schedule: Q01DX009 (ip), vehicle: saline): 92 % of control | T/C (endpoint: mean survival time, dose: 64.0 mg/kg/injection, schedule: Q01DX009 (sc), vehicle: saline): 88 % of control | T/C (endpoint: mean survival time, dose: 64.0 mg/kg/injection, schedule: Q04DX003 (ip), vehicle: saline): 175 % of control | T/C (endpoint: mean survival time, dose: 64.0 mg/kg/injection, schedule: Q08DX002 (ip), vehicle: saline): 156 % of control | T/C (endpoint: mean survival time, dose: 128.0 mg/kg/injection, schedule: Q01DX001 (ip), vehicle: saline): 201 % of control | T/C (endpoint: mean survival time, dose: 128.0 mg/kg/injection, schedule: Q04DX003 (ip), vehicle: saline): 88 % of control | T/C (endpoint: mean survival time, dose: 128.0 mg/kg/injection, schedule: Q08DX002 (ip), vehicle: saline): 190 % of control

O=C(O)C1OC1c1ccccc1 (configuration not stated)
T/C [1]: 107 % of control | T/C [2]: 91 % of control | T/C [3]: 98 % of control | T/C [4]: 100 % of control | T/C (endpoint: mean survival time, dose: 400.0 mg/kg/injection, schedule: Q01DX009 (ip), vehicle: saline with Tween-80): 101 % of control | T/C (endpoint: mean survival time, dose: 400.0 mg/kg/injection, schedule: Q04DX003 (ip), vehicle: saline): 97 % of control

O=S(=O)(O)SCCN1CCOCC1
T/C (endpoint: mean survival time, dose: 100.0 mg/kg/injection, schedule: Q01DX009 (ip), vehicle: saline): 103 % of control | T/C [5]: 101 % of control | T/C (endpoint: mean survival time, dose: 200.0 mg/kg/injection, schedule: Q01DX009 (ip), vehicle: saline): 106 % of control | T/C [6]: 101 % of control | T/C (endpoint: mean survival time, dose: 400.0 mg/kg/injection, schedule: Q01DX009 (ip), vehicle: saline): 104 % of control | T/C [7]: 100 % of control

CS(=O)(=O)Nc1ccc(Nc2c3ccccc3nc3cc(N)ccc23)cc1
T/C (endpoint: mean survival time, dose: 1.5 mg/kg/injection, schedule: Q01DX001 (ip), vehicle: saline): 160 % of control | T/C (endpoint: mean survival time, dose: 3.0 mg/kg/injection, schedule: Q01DX001 (ip), vehicle: saline): 162 % of control | T/C (endpoint: mean survival time, dose: 3.0 mg/kg/injection, schedule: Q01DX009 (ip), vehicle: saline): 152 % of control | T/C (endpoint: mean survival time, dose: 5.0 mg/kg/injection, schedule: Q01DX009 (ip), vehicle: saline): 114 % of control | T/C (endpoint: mean survival time, dose: 12.0 mg/kg/injection, schedule: Q01DX001 (ip), vehicle: saline): 175 % of control

CC/C(=C(/CC)c1ccc(OP(N)(=O)N(CCCl)CCCl)cc1)c1ccc(OP(N)(=O)N(CCCl)CCCl)cc1 (configuration not stated)
T/C (endpoint: mean survival time, dose: 90.0 mg/kg/injection, schedule: Q01DX001 (ip), vehicle: DMSO): 100 % of control | T/C (endpoint: mean survival time, dose: 133.0 mg/kg/injection, schedule: Q01DX001 (ip), vehicle: DMSO): 98 % of control | T/C (endpoint: mean survival time, dose: 200.0 mg/kg/injection, schedule: Q01DX001 (ip), vehicle: DMSO): 102 % of control | T/C (endpoint: mean survival time, dose: 300.0 mg/kg/injection, schedule: Q01DX001 (ip), vehicle: DMSO): 113 % of control

ClCCn1c(CCl)nc2ccc(Cl)cc21
T/C (endpoint: mean survival time, dose: 2.5 mg/kg/injection, schedule: Q01DX009 (ip), vehicle: Klucel (hydroxypropylcellulose) (HPC)): 109 % of control | T/C (endpoint: mean survival time, dose: 5.0 mg/kg/injection, schedule: Q01DX009 (ip), vehicle: Klucel (hydroxypropylcellulose) (HPC)): 101 % of control | T/C (endpoint: mean survival time, dose: 10.0 mg/kg/injection, schedule: Q01DX009 (ip), vehicle: Klucel (hydroxypropylcellulose) (HPC)): 95 % of control and 102 % of control

[N-]=[N+]=CC(=O)NCC(=O)N/N=C/c1ccccn1
T/C (endpoint: mean survival time, dose: 100.0 mg/kg/injection, schedule: Q01DX009 (ip), vehicle: saline sonified): 104 % of control | T/C [5]: 97 % of control | T/C (endpoint: mean survival time, dose: 200.0 mg/kg/injection, schedule: Q01DX009 (ip), vehicle: saline sonified): 104 % of control | T/C [6]: 98 % of control | T/C (endpoint: mean survival time, dose: 400.0 mg/kg/injection, schedule: Q01DX009 (ip), vehicle: saline sonified): 97 % of control | T/C [7]: 94 % of control

CCCC1CC[N-]CC1.CCCC1CC[N-]CC1.[Cl][Cu][Cl]
T/C (endpoint: mean survival time, dose: 3.13 mg/kg/injection, schedule: Q01DX009 (ip), vehicle: saline): 96 % of control | T/C (endpoint: mean survival time, dose: 12.5 mg/kg/injection, schedule: Q01DX009 (ip), vehicle: saline): 94 % of control

CC(C)NC(=O)C1C=C2c3cccc4c3C(CN4)CC2N(C)C1 (configuration not stated)
T/C (endpoint: mean survival time, dose: 50.0 mg/kg/injection, schedule: Q01DX009 (ip), vehicle: saline with Tween-80): 93 % of control | T/C (endpoint: mean survival time, dose: 50.0 mg/kg/injection, schedule: Q04DX003 (ip), vehicle: saline): 94 % of control | T/C [1]: 100 % of control | T/C [2]: 88 % of control | T/C [3]: 97 % of control | T/C [4]: 94 % of control

Cc1cc(Cl)nc(N)n1
T/C (endpoint: mean survival time, dose: 100.0 mg/kg/injection, schedule: Q04DX002 (ip), vehicle: Klucel (hydroxypropylcellulose) (HPC)): 90 % of control | T/C (endpoint: mean survival time, dose: 200.0 mg/kg/injection, schedule: Q04DX002 (ip), vehicle: Klucel (hydroxypropylcellulose) (HPC)): 86 % of control

O=c1cc(-c2ccccc2)ss1
T/C (endpoint: mean survival time, dose: 100.0 mg/kg/injection, schedule: Q04DX003 (ip), vehicle: Klucel (hydroxypropylcellulose) (HPC)): 104 % of control | T/C (endpoint: mean survival time, dose: 200.0 mg/kg/injection, schedule: Q04DX003 (ip), vehicle: Klucel (hydroxypropylcellulose) (HPC)): 100 % of control | T/C (endpoint: mean survival time, dose: 400.0 mg/kg/injection, schedule: Q04DX003 (ip), vehicle: Klucel (hydroxypropylcellulose) (HPC)): 105 % of control

COc1ccc2[nH]c3ccc4cc[n+](CCN5CCC(C6CCN(CC[n+]7ccc8ccc9[nH]c%10ccc(OC)cc%10c9c8c7)CC6)CC5)cc4c3c2c1
T/C (endpoint: median survival time, dose: 8.0 mg/kg/injection, schedule: Q01DX009 (ip), vehicle: water): 172 % of control and 246 % of control | T/C (endpoint: median survival time, dose: 16.0 mg/kg/injection, schedule: Q01DX009 (ip), vehicle: water): 160 % of control and 185 % of control | T/C (endpoint: median survival time, dose: 16.25 mg/kg/injection, schedule: Q01DX009 (ip), vehicle: water): 172 % of control | T/C (endpoint: median survival time, dose: 32.0 mg/kg/injection, schedule: Q01DX009 (ip), vehicle: water): 119 % of control | T/C (endpoint: median survival time, dose: 32.5 mg/kg/injection, schedule: Q01DX009 (ip), vehicle: water): 197 % of control | T/C (endpoint: median survival time, dose: 200.0 mg/kg/injection, schedule: Q01DX009 (ip), vehicle: Klucel (hydroxypropylcellulose) (HPC)): 91 % of control and 102 % of control

Cc1cccc(-n2c(N)cc(=O)[nH]c2=S)n1
T/C [5]: 96 % of control

Cc1cccc(NC(=O)C2CCC(C)(C(=O)O)C2(C)C)c1 (configuration not stated)
T/C [5]: 94 % of control | T/C [6]: 90 % of control

CCCCN(CCCC)C(Cl)=Nc1ccccc1
T/C (endpoint: mean survival time, dose: 6.25 mg/kg/injection, schedule: Q01DX009 (ip), vehicle: Klucel (hydroxypropylcellulose) (HPC)): 95 % of control and 105 % of control | T/C (endpoint: mean survival time, dose: 12.5 mg/kg/injection, schedule: Q01DX009 (ip), vehicle: Klucel (hydroxypropylcellulose) (HPC)): 92 % of control and 104 % of control | T/C (endpoint: mean survival time, dose: 25.0 mg/kg/injection, schedule: Q01DX009 (ip), vehicle: Klucel (hydroxypropylcellulose) (HPC)): 94 % of control and 95 % of control | T/C (endpoint: mean survival time, dose: 50.0 mg/kg/injection, schedule: Q01DX009 (ip), vehicle: Klucel (hydroxypropylcellulose) (HPC)): 94 % of control and 95 % of control | T/C (endpoint: mean survival time, dose: 100.0 mg/kg/injection, schedule: Q01DX009 (ip), vehicle: Klucel (hydroxypropylcellulose) (HPC)): 93 % of control | T/C (endpoint: mean survival time, dose: 200.0 mg/kg/injection, schedule: Q01DX009 (ip), vehicle: Klucel (hydroxypropylcellulose) (HPC)): 90 % of control
